Data reported in patent US12594276B2, “Inhibitors of human immunodeficiency virus replication” (ViiV Healthcare UK (No.5) Limited, priority 2024, dated 2026).

How the values were obtained:
[1] = Compound cytotoxicity, XTT-based colorimetric assay; type: cell-based; details: human; uninfected MT2 cells, day 4, XTT; read-out: CC50
Outline: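 Uninfected MT2 cells were treated with compound under the same protocol as the antiviral assay. Viability was read on day 4 with an XTT colorimetric assay, from which CC50 values were derived.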

[2] = tested on: recombinant NL4-3 virus (nef section replaced with Renilla luciferase gene) in MT-2 cells; experiment: HIV cell culture assay (antiviral activity, luciferase readout); type: cell-based; details: Renilla, NL43, MT-2 cells infected for 4-5 days with recombinant NL4-3 Renilla luciferase virus
Outline: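 EC50 was derived by median-effect fitting of Renilla luciferase signal from MT-2 cells. These cells were infected for 4–5 days with NL4-3 reporter virus (nef partly replaced by luciferase; made in 293T cells) in the presence of serially diluted compound. Activity was quantified with a live-cell luciferase substrate.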

SMILES | CC50 at 4 days [1] [nM] | EC50 [2] [nM]
CS(=O)(=O)Nc1nn(CCN2C[C@@H](F)[C@@H](F)C2)c2c(-n3c([C@H](Cc4cc(F)cc(F)c4)NC(=O)Cn4nc(C(F)F)c5c4C(F)(F)[C@@H]4C[C@H]54)nc4nc(C5CCC(F)(F)CC5)cc(C(F)F)c4c3=O)ccc(Cl)c12 (atropisomer, axis not shown; (P)) [Example 259, N-[(1S)-1-[(3P)-3-(4-chloro-1-{2-[(3R,4S)-3,4-difluoropyrrolidin-1-yl]ethyl}-3-methanesulfonamido-1H-indazol-7-yl)-7-(4,4-difluorocyclohexyl)-5-(difluoromethyl)-4-oxo-3H,4H-pyrido[2,3-d]pyrimidin-2-yl]-2-(3,5-difluorophenyl)ethyl]-2-[(2S,4R)-9-(difluoromethyl)-5,5-difluoro-7,8-diazatricyclo[4.3.0.0^2,^4]nona-1(6),8-dien-7-yl]acetamide] | > 50 | 0.025
CCOCCn1nc(NS(C)(=O)=O)c2c(Cl)ccc(-n3c([C@H](Cc4cc(F)cc(F)c4)NC(=O)Cn4nc(C(F)F)c5c4C(F)(F)[C@@H]4C[C@H]54)nc4nc(C5CCC(F)(F)CC5)cc(C(F)F)c4c3=O)c21 (atropisomer, axis not shown; (P)) [Example 150, N-[(1S)-1-[(3P)-3-[4-chloro-1-(2-ethoxyethyl)-3-methanesulfonamido-1H-indazol-7-yl]-7-(4,4-difluorocyclohexyl)-5-(difluoromethyl)-4-oxo-3H,4H-pyrido[2,3-d]pyrimidin-2-yl]-2-(3,5-difluorophenyl)ethyl]-2-[(2S,4R)-9-(difluoromethyl)-5,5-difluoro-7,8-diazatricyclo[4.3.0.0^2,^4]nona-1(6),8-dien-7-yl]acetamide] | > 50 | 0.017
Cc1cc(C2(F)CCC(F)(F)CC2)nc2nc([C@H](Cc3cc(F)cc(F)c3)NC(=O)Cn3nc(C4CC4)c4c3C[C@@H]3C[C@H]43)n(-c3ccc(Cl)c4c(NS(C)(=O)=O)nn(C[C@@H](C)N5C[C@H](F)C[C@H](F)C5)c34)c(=O)c12 (relative stereo) [Example 702, N-[(1S)-1-[(3P)-3-{4-chloro-1-[(2R)-2-[(3R,5S)-3,5-difluoropiperidin-1-yl]propyl]-3-methanesulfonamido-1H-indazol-7-yl}-5-methyl-4-oxo-7-(1,4,4-trifluorocyclohexyl)-3H,4H-pyrido[2,3-d]pyrimidin-2-yl]-2-(3,5-difluorophenyl)ethyl]-2-[(2R*,4R*)-9-cyclopropyl-7,8-diazatricyclo[4.3.0.0^2,^4]nona-1(6),8-dien-7-yl]acetamide] | > 20 | 0.016
Cc1cc(C2CCC(F)(F)CC2)nc2nc([C@H](Cc3cc(F)cc(F)c3)NC(=O)Cn3nc(C4CC4)c4c3C[C@@H]3C[C@H]43)n(-c3ccc(Cl)c4c(NS(C)(=O)=O)nn(C[C@@H](C)N5C[C@H](F)C[C@H](F)C5)c34)c(=O)c12 (relative stereo) [Example 685, N-[(1S)-1-[(3P)-3-{4-chloro-1-[(2R)-2-[(3R,5S)-3,5-difluoropiperidin-1-yl]propyl]-3-methanesulfonamido-1H-indazol-7-yl}-7-(4,4-difluorocyclohexyl)-5-methyl-4-oxo-3H,4H-pyrido[2,3-d]pyrimidin-2-yl]-2-(3,5-difluorophenyl)ethyl]-2-[(2R*,4R*)-9-cyclopropyl-7,8-diazatricyclo[4.3.0.0^2,^4]nona-1(6),8-dien-7-yl]acetamide] | > 20 | 0.01
COCCCn1nc(NS(C)(=O)=O)c2c(Cl)ccc(-n3c([C@H](Cc4cc(F)cc(F)c4)NC(=O)Cn4nc(C(F)F)c5c4C(F)(F)[C@@H]4C[C@H]54)nc4nc(C5CCC(F)(F)CC5)cc(NCCC5CCOCC5)c4c3=O)c21 (atropisomer, axis not shown; (P)) [Example 550, N-[(1S)-1-[(3P)-3-[4-chloro-3-methanesulfonamido-1-(3-methoxypropyl)-1H-indazol-7-yl]-7-(4,4-difluorocyclohexyl)-5-{[2-(oxan-4-yl)ethyl]amino}-4-oxo-3H,4H-pyrido[2,3-d]pyrimidin-2-yl]-2-(3,5-difluorophenyl)ethyl]-2-[(2S,4R)-9-(difluoromethyl)-5,5-difluoro-7,8-diazatricyclo[4.3.0.0^2,^4]nona-1(6),8-dien-7-yl]acetamide] | > 20 | 0.012
Cc1cc(C2CCC(F)(F)CC2)nc2nc([C@H](Cc3cc(F)cc(F)c3)NC(=O)Cn3nc(C(F)F)c4c3C(F)(F)[C@@H]3C[C@H]43)n(-c3ccc(Cl)c4c(NS(C)(=O)=O)nn(CCN5CCOC(C)(C)C5)c34)c(=O)c12 (atropisomer, axis not shown; (P)) [Example 479, N-[(1S)-1-[(3P)-3-{4-chloro-1-[2-(2,2-dimethylmorpholin-4-yl)ethyl]-3-methanesulfonamido-1H-indazol-7-yl}-7-(4,4-difluorocyclohexyl)-5-methyl-4-oxo-3H,4H-pyrido[2,3-d]pyrimidin-2-yl]-2-(3,5-difluorophenyl)ethyl]-2-[(2S,4R)-9-(difluoromethyl)-5,5-difluoro-7,8-diazatricyclo[4.3.0.0^2,^4]nona-1(6),8-dien-7-yl]acetamide] | > 20 | 0.004
COCCCn1nc(NS(C)(=O)=O)c2c(Cl)ccc(-n3c([C@H](Cc4cc(F)cc(F)c4)NC(=O)Cn4nc(C(F)F)c5c4C(F)(F)[C@@H]4C[C@H]54)nc4nc(C5CCC(F)(F)CC5)cc(NCC5(C)CCOCC5)c4c3=O)c21 (atropisomer, axis not shown; (P)) [Example 485, N-[(1S)-1-[(3P)-3-[4-chloro-3-methanesulfonamido-1-(3-methoxypropyl)-1H-indazol-7-yl]-7-(4,4-difluorocyclohexyl)-5-{[(4-methyloxan-4-yl)methyl]amino}-4-oxo-3H,4H-pyrido[2,3-d]pyrimidin-2-yl]-2-(3,5-difluorophenyl)ethyl]-2-[(2S,4R)-9-(difluoromethyl)-5,5-difluoro-7,8-diazatricyclo[4.3.0.0^2,^4]nona-1(6),8-dien-7-yl]acetamide] | > 20 | 0.016
CCOCCn1nc(NS(C)(=O)=O)c2c(Cl)ccc(-n3c([C@H](Cc4cc(F)cc(F)c4)NC(=O)Cn4nc(C(F)F)c5c4C(F)(F)[C@@H]4C[C@H]54)nc4nc(C5CCC(F)(F)CC5)cc(C)c4c3=O)c21 (atropisomer, axis not shown; (P)) [Example 60, N-[(1S)-1-[(3P)-3-[4-chloro-1-(2-ethoxyethyl)-3-methanesulfonamido-1H-indazol-7-yl]-7-(4,4-difluorocyclohexyl)-5-methyl-4-oxo-3H,4H-pyrido[2,3-d]pyrimidin-2-yl]-2-(3,5-difluorophenyl)ethyl]-2-[(2S,4R)-9-(difluoromethyl)-5,5-difluoro-7,8-diazatricyclo[4.3.0.0^2,^4]nona-1(6),8-dien-7-yl]acetamide] | > 50 | 0.012
Cc1cc(C2(F)CCC(F)(F)CC2)nc2nc([C@H](Cc3cc(F)cc(F)c3)NC(=O)Cn3nc(C4CC4)c4c3C[C@@H]3C[C@H]43)n(-c3ccc(Cl)c4c(NS(C)(=O)=O)nn([C@H](C)C(=O)N5CC(C)(C)OC(C)(C)C5)c34)c(=O)c12 (relative stereo) [Example 750, N-[(1S)-1-[(3P)-3-{4-chloro-3-methanesulfonamido-1-[(2R)-1-oxo-1-(2,2,6,6-tetramethylmorpholin-4-yl)propan-2-yl]-1H-indazol-7-yl}-5-methyl-4-oxo-7-(1,4,4-trifluorocyclohexyl)-3H,4H-pyrido[2,3-d]pyrimidin-2-yl]-2-(3,5-difluorophenyl)ethyl]-2-[(2R*,4R*)-9-cyclopropyl-7,8-diazatricyclo[4.3.0.0^2,^4]nona-1(6),8-dien-7-yl]acetamide] | > 20 | 0.028
Cc1cc(C2CCC(F)(F)CC2)nc2nc([C@H](Cc3cc(F)cc(F)c3)NC(=O)Cn3nc(C4CC4)c4c3C[C@@H]3C[C@H]43)n(-c3ccc(Cl)c4c(NS(C)(=O)=O)nn(CCNC5COC5)c34)c(=O)c12 (atropisomer, axis not shown; (P)) [Example 279, N-[(1S)-1-[(3P)-3-(4-chloro-3-methanesulfonamido-1-{2-[(oxetan-3-yl)amino]ethyl}-1H-indazol-7-yl)-7-(4,4-difluorocyclohexyl)-5-methyl-4-oxo-3H,4H-pyrido[2,3-d]pyrimidin-2-yl]-2-(3,5-difluorophenyl)ethyl]-2-[(2S,4S)-9-cyclopropyl-7,8-diazatricyclo[4.3.0.0^2,^4]nona-1(6),8-dien-7-yl]acetamide] | > 50 | 0.036
Cc1cc(C2CCC(F)(F)CC2)nc2nc([C@H](Cc3cc(F)cc(F)c3)NC(=O)Cn3nc(C4CC4)c4c3C[C@@H]3C[C@H]43)n(-c3ccc(Cl)c4c(NS(C)(=O)=O)nn(CCN5C[C@H]6C[C@@H]5CO6)c34)c(=O)c12 (atropisomer, axis not shown; (P)) [Example 9, N-[(1S)-1-[(3P)-3-(4-chloro-3-methanesulfonamido-1-{2-[(1R,4R)-2-oxa-5-azabicyclo[2.2.1]heptan-5-yl]ethyl}-1H-indazol-7-yl)-7-(4,4-difluorocyclohexyl)-5-methyl-4-oxo-3H,4H-pyrido[2,3-d]pyrimidin-2-yl]-2-(3,5-difluorophenyl)ethyl]-2-[(2S,4S)-9-cyclopropyl-7,8-diazatricyclo[4.3.0.0^2,^4]nona-1(6),8-dien-7-yl]acetamide] | > 50 | 0.009
